System: U87MG cells
Assay: Cytotoxicity assay (cell viability, CellTiter 96 Aqueous MTS)
Format: cell-based
Details: Homo sapiens, U-87 MG, 72 h, 72 hours incubation, starting concentration 50 uM, 9 point half log dilution, average where tested repeatedly
Experimental: Example 3: Cytotoxicity Assay
U87MG cells were plated at a density of 7×10^3 cells/well and allowed to seed overnight. Cells were then treated with compounds from Table 1 or CMPD-1 (4-(2′-fluoro-[1,1′-biphenyl]-4-yl)-N-(4-hydroxyphenyl)butanamide as a positive control) were added to cells at a starting concentration of 50 uM, with a 9 point half log dilution, and incubated for 72 hours prior to viability determination. IC50 values were calculated from cell viability as measured using the CellTiter 96® Aqueous MTS reagent from Promega©, and the results are shown in Table 2.

SMILES | IC50
O=C(CCCc1ccc(-c2ccccc2F)cc1)Nc1ccc2[nH]ncc2c1 [Compound 4, 4-(2′-fluoro-[1,1′-biphenyl]-4-yl)-N-(1H-indazol-5-yl)butanamide] | 1 to 5 µM
O=C(CCCc1ccc(-c2ccccc2F)cc1)Nc1ccc2[nH]ccc2c1 [Compound 6, 4-(2′-fluoro-[1,1′-biphenyl]-4-yl)-N-(1H-indol-5-yl)butanamide] | 1 to 5 µM
O=C(CCCc1ccc(-c2ccccc2F)cc1)Nc1ccc(O)nc1 [Compound 8, 4-(2′-fluoro-[1,1′-biphenyl]-4-yl)-N-(6-hydroxypyridin-3-yl)butanamide] | > 5 µM
O=C(CCCc1ccc(-c2ccccc2F)cc1)Nc1cccnc1 [Compound 37, 4-(2′-fluoro-[1,1′-biphenyl]-4-yl)-N-(pyridin-3-yl)butanamide] | 0.501 to 1 µM
O=C(CCCc1ccc(-c2ccccc2F)cc1)Nc1nccs1 [Compound 38, 4-(2′-fluoro-[1,1′-biphenyl]-4-yl)-N-(thiazol-2-yl)butanamide] | > 5 µM
COc1ccc(NC(=O)CCCc2ccc(-c3ccccc3F)cc2)cn1 [Compound 39, 4-(2′-fluoro-[1,1′-biphenyl]-4-yl)-N-(6-methoxypyridin-3-yl)butanamide] | > 5 µM
O=C(CCCc1ccc(-c2ccccc2F)cc1)Nc1ccccn1 [Compound 40, 4-(2′-fluoro-[1,1′-biphenyl]-4-yl)-N-(pyridin-2-yl)butanamide] | > 5 µM
O=C(CCCc1ccc(-c2ccccc2F)cc1)NCc1cccnc1 [Compound 41, 4-(2′-fluoro-[1,1′-biphenyl]-4-yl)-N-(pyridin-3-ylmethyl)butanamide] | > 5 µM
O=C(CCCc1ccc(-c2ccccc2F)cc1)NCc1ccncc1 [Compound 42, 4-(2′-fluoro-[1,1′-biphenyl]-4-yl)-N-(pyridin-4-ylmethyl)butanamide] | 1 to 5 µM
O=C(CCCc1ccc(-c2ccccc2F)cc1)NCc1ccccn1 [Compound 43, 4-(2′-fluoro-[1,1′-biphenyl]-4-yl)-N-(pyridin-2-ylmethyl)butanamide] | 1 to 5 µM
COc1ccc(CNC(=O)CCCc2ccc(-c3ccccc3F)cc2)cc1 [Compound 44, 4-(2′-fluoro-[1,1′-biphenyl]-4-yl)-N-(4-methoxybenzyl)butanamide] | 0.501 to 1 µM
Cc1ccc(NC(=O)CCCc2ccc(-c3ccccc3F)cc2)cn1 [Compound 45, 4-(2′-fluoro-[1,1′-biphenyl]-4-yl)-N-(6-methylpyridin-3-yl)butanamide] | < 0.5 µM
O=C(CCCc1ccc(-c2ccccc2F)cc1)Nc1cn[nH]c1 [Compound 47, 4-(2′-fluoro-[1,1′-biphenyl]-4-yl)-N-(1H-pyrazol-4-yl)butanamide] | > 5 µM
Cn1cc(CNC(=O)CCCc2ccc(-c3ccccc3F)cc2)cn1 [Compound 48, 4-(2′-fluoro-[1,1′-biphenyl]-4-yl)-N-((1-methyl-1H-pyrazol-4-yl)methyl)butanamide] | 1 to 5 µM
O=C(CCCc1ccc(-c2ccccc2F)cc1)NCC1CC1 [Compound 50, N-(cyclopropylmethyl)-4-(2′-fluoro-[1,1′-biphenyl]-4-yl)butanamide] | 1 to 5 µM
O=C(CCCc1ccc(-c2ccccc2F)cc1)Nc1ccc(C(F)(F)F)nc1 [Compound 51, 4-(2′-fluoro-[1,1′-biphenyl]-4-yl)-N-(6-(trifluoromethyl)pyridin-3-yl)butanamide] | > 5 µM
CN(C(=O)CCCc1ccc(-c2ccccc2F)cc1)c1cccnc1 [Compound 52, 4-(2′-fluoro-[1,1′-biphenyl]-4-yl)-N-methyl-N-(pyridin-3-yl)butanamide] | > 5 µM

SMILES | IC50
O=C(CCCc1ccc(-c2ccccc2F)cc1)Nc1ccc2c(c1)OCC(=O)N2 [Compound 53, 4-(2′-fluoro-[1,1′-biphenyl]-4-yl)-N-(3-oxo-3,4-dihydro-2H-benzo[b][1,4]oxazin-7-yl)butanamide] | 0.501 to 1 µM
O=C(CCCc1ccc(-c2ccccc2F)cc1)NC1CCC(F)(F)CC1 [Compound 54, N-(4,4-difluorocyclohexyl)-4-(2′-fluoro-[1,1′-biphenyl]-4-yl)butanamide] | > 5 µM
O=C(CCCc1ccc(-c2ccccc2F)cc1)NC1COC1 [Compound 55, 4-(2′-fluoro-[1,1′-biphenyl]-4-yl)-N-(oxetan-3-yl)butanamide] | 1 to 5 µM
O=C(CCCc1ccc(-c2ccccc2F)cc1)Nc1ccc2[nH]c(=O)[nH]c2c1 [Compound 58, 4-(2′-fluoro-[1,1′-biphenyl]-4-yl)-N-(2-oxo-2,3-dihydro-1H-benzo[d]imidazol-5-yl)butanamide] | > 5 µM
O=C(CCCc1ccc(-c2ccccc2F)cc1)Nc1ccc2c(c1)CNC2=O [Compound 59, 4-(2′-fluoro-[1,1′-biphenyl]-4-yl)-N-(1-oxoisoindolin-5-yl)butanamide] | > 5 µM
O=C(CCCc1ccc(-c2ccccc2F)cc1)NC1CCC(O)CC1 (stereo not shown) [Compound 62, 4-(2′-fluoro-[1,1′-biphenyl]-4-yl)-N-(4-hydroxycyclohexyl)butanamide] | > 5 µM
O=C(CCCc1ccc(-c2ccccc2F)cc1)Nc1ccon1 [Compound 63, 4-(2′-fluoro-[1,1′-biphenyl]-4-yl)-N-(isoxazol-3-yl)butanamide] | > 5 µM
O=C(NCCCc1ccc(-c2ccccc2F)cc1)c1cccnc1 [Compound 64, N-(3-(2′-fluoro-[1,1′-biphenyl]-4-yl)propyl)nicotinamide] | < 0.5 µM
O=C(NCCCc1ccc(-c2ccccc2F)cc1)c1cccnn1 [Compound 65, N-(3-(2′-fluoro-[1,1′-biphenyl]-4-yl)propyl)pyridazine-3-carboxamide] | > 5 µM
O=C(NCCCc1ccc(-c2ccccc2F)cc1)c1cn[nH]c1 [Compound 66, N-(3-(2′-fluoro-[1,1′-biphenyl]-4-yl)propyl)-1H-pyrazole-4-carboxamide] | > 5 µM
O=C(NCCCc1ccc(-c2ccccc2F)cc1)c1cncnc1 [Compound 67, N-(3-(2′-fluoro-[1,1′-biphenyl]-4-yl)propyl)pyrimidine-5-carboxamide] | < 0.5 µM
O=C(NCCCc1ccc(-c2ccccc2F)cc1)c1ccc2[nH]nnc2c1 [Compound 70, N-(3-(2′-fluoro-[1,1′-biphenyl]-4-yl)propyl)-1H-benzo[d][1,2,3]triazole-5-carboxamide] | > 5 µM
Cc1ccc(C(=O)NCCCc2ccc(-c3ccccc3F)cc2)cn1 [Compound 71, N-(3-(2′-fluoro-[1,1′-biphenyl]-4-yl)propyl)-6-methylnicotinamide] | < 0.5 µM
O=C(NCCCc1ccc(-c2ccccc2F)cc1)c1ccc2[nH]ncc2c1 [Compound 73, N-(3-(2′-fluoro-[1,1′-biphenyl]-4-yl)propyl)-1H-indazole-5-carboxamide] | 1 to 5 µM
O=C(NCCCc1ccc(-c2ccccc2F)cc1)c1ccc2[nH]ccc2c1 [Compound 74, N-(3-(2′-fluoro-[1,1′-biphenyl]-4-yl)propyl)-1H-indole-5-carboxamide] | 0.501 to 1 µM
O=C(NCCCc1ccc(-c2ccccc2F)cc1)C1CC(F)(F)C1 [Compound 75, 3,3-difluoro-N-(3-(2′-fluoro-[1,1′-biphenyl]-4-yl)propyl)cyclobutane-1-carboxamide] | > 5 µM
O=C(NCCCc1ccc(-c2ccccc2F)cc1)c1cnccn1 [Compound 76, N-(3-(2′-fluoro-[1,1′-biphenyl]-4-yl)propyl)pyrazine-2-carboxamide] | > 5 µM

From patent publication US12247010B2, “Tubulin inhibitors” (LIN BIOSCIENCE PTY LTD., priority 2017, dated 2025)
